Laboratory results as given in patent US20130251632A1, “APOPTOSIS PET IMAGING AGENTS” (GE HEALTHCARE LIMITED, priority 2010, published 2013).

Assay: Affinity for phosphatidylethanolamine, Biacore 3000 with L1 chip and captured liposomes
Assay type: binding
Details: POPE/POPC liposomes (20% PE)
Excerpt: A Biacore 3000 (GE Healthcare, Uppsala) was equipped with an L1 chip. Liposomes made of POPE/POPC (20% PE) were applied for the affinity study using the capture technique recommended by the manufacturer. Each run consisted of activation of the chip surface, immobilization of liposomes, binding of peptide and wash off of both liposomes and peptide (regeneration). Similar applications can be found in Frostell-Karlsson et al [Pharm. Sciences, V.94 (1), (2005)]. Thorough washing of needle, tubing and liquid handling system with running buffer was performed after each cycle.
BIACORE software: The BIACORE control software including all method instructions was applied. A method with commands was also written in the BIACORE Method Definition Language (MDL) to have full control over pre-programmed instructions. BIACORE evaluation software was applied for analysing the sensorgrams.

In the case of duramycin, the “ka” value was ~20000 M⁻¹ s⁻¹.
